Earlier results on one compound are cited in patent US20100303937A1, “NOVEL COMPOSITION TO INCREASE TESTOSTERONE LEVELS” (priority 2009, published 2010).

The conditions of this data set: humans; prior art U.S. Pat. No. 5,880,117.

Some results are limits rather than exact numbers.

For the compound `C[C@]12CC[C@H]3[C@@H](CCC4=C[C@@H](O)CC[C@@]43C)[C@@H]1CC[C@@H]2O` [4-androstene-3β, 17β-diol], the “time within which concentration peaks after administration” value was no more than 90 min.
